Patent US20150166646A1, “Methods and Compositions for Treating or Diagnosing Melanoma” (The Wistar Institute of Anatomy and Biology, priority 2012, published 2015)

Legend:
macrophages = assay: Macrophage growth (WST-1) and cell death; assay type: cell-based, human; settings: 3 μM, 72 hours
1205Lu melanoma cells = assay: Matrigel Transwell invasion assay with 1205Lu-MΦ conditioned medium; assay type: cell-based, human; settings: anti-CCL2 10 μg/ml
Protocol: The invasion assay was conducted with 24-well Transwell inserts (8 μm pore size; Corning). For the MCMI-MΦ-induced invasion assay, 4×10^5 1205Lu melanoma cells in 2% FBS RPMI1640 medium were added in the upper chamber precoated with 50 μl Matrigel (1:3 dilution, BD Biosciences). Media from 1205Lu-MΦ were added to the lower chamber, and R10 medium was used as a control. After overnight incubation, cells that had invaded
were fixed and stained with Diff-Quick staining kit (ThermoFisher). The stained cells in 4 randomly chosen fields were counted for each insert (200×). […]
We used a Matrigel Transwell assay and compared invasion of melanoma cells attracted to the supernatant of 1205Lu-MΦ alone or the supernatant with an anti-CCL2 monoclonal antibody and a pan-MMPs inhibitor GM6001 (see FIG. 7; see also FIG. 4(A)-(E) of Reference 11).

[1] = test system: peritoneal F4/80 positive macrophages; assay: Flow cytometric analysis of peritoneal macrophages of treated xenograft mice; assay type: in vivo; settings: day 14
1205Lu [2] = assay: Western blot of 1205Lu cells treated with PLX4720, GW2580, soluble M-CSFR with or without MCMI-Mφ; assay type: cell-based, human; settings: 10 μM, 3 days, without MCMI-Mφ
[3] = test system: 1205Lu xenograft tumor tissues; assay: Immunohistochemistry of xenograft tumors (F4/80, phospho-ERK, Ki67); assay type: in vivo, mice; settings: for Ki67 positive cells in tumor tissues / signaling of phospho-ERK in tumor tissues: compared to control mice; for F4/80 positive macrophages in tumors: day 14
[4] = test system: 1205Lu and A375 melanoma cells; assay: Melanoma cell growth (WST-1) and cell death (Annexin V/7-AAD), cells cultured alone; assay type: cell-based, human
1205Lu xenograft = 1205Lu xenograft tumor growth in nude mice; assay type: in vivo
Protocol: 5×10^5 1205Lu cells were subcutaneously injected to Nude mice (Female, 8 weeks old).
Tumor size was measured by a caliper. Tumor volume was calculated by the formula: Volume width×wide×length/2. The results are shown in the plot of FIG. 12A, plotting tumor volume vs. day.
Tumors from the experiment described immediately above were extracted and weighted after mice were euthanized. Tumor weight in grams was plotted vs. control or an agent defined along the x axis of FIG. 22A.
All studies were conducted under IACUC guidelines. 7 weeks old BALB/c female nude mice (National Cancer Institute) were injected subcutaneously with 1×10^61205Lu cells in 50% Matrigel (BD Biosciences) in both flanks of mice. When xenografts reached volumes of approximately 100 mm^3, mice were randomly grouped to four groups, with 5 animals per group. GW2580 was dissolved in 0.5% hydroxypropylmethylcellulose (Sigma-Aldrich, MO, USA) and 0.1% Tween 80, and was dosed orally at 160 mg/Kg once daily. […] Tumor volumes were measured every three days using a digital caliber and were calculated using the equation V=0.5×L×W^2. Mice tumors were weighted after mice were euthanized.
1205Lu cells were injected s.c into both flanks of nude mice. […] ANOVA was used to compare the differences in tumor volume. Mice were euthanized on day 14, peritoneal cells were harvested for flow cytometric analysis of the percent of F4/80 positive macrophages. Immunohistochemistry analysis of the expression of F4/80, phospho-ERK and Ki67 in tumors was conducted. The results are shown in FIGS. 12A-E. See, also the data in FIGS. 3B and 3C

[5] = test system: melanoma cells co-cultured with macrophages; assay: Melanoma/macrophage transwell co-culture: growth (WST-1) and cell death; assay type: cell-based, human; settings: for macrophage-mediated resistance of melanoma cells to BRAFi (cell growth, anti-cell death effect): co-culture with macrophages in presence of PLX4720, 3 days
[6] = test system: VEGF production in macrophages; assay: Intracellular staining for VEGF production in macrophages; settings: 4 hours
[7] = test system: MAPK pathway in macrophages; assay: Immunoblotting of MAPK signaling in macrophages; assay type: cell-based, human; settings: 2 hours; accompanied by phosphorylation of CRAF
Protocol: For macrophages, after monocytes were differentiated to the macrophages, cells in 2% FBS melanoma media were seeded into 15 ml tubes. […] Immunoblotting were performed as described previously. The following antibodies were used: anti-phospho-ERK, ERK, Phospho-VEGFR1, phospho-CRAF, CRAF, PCNA, HSP90 and Rab11.
Cells were harvested for immunoblotting of antibodies to pERK (short expression), pERK, ERK, pCRAF (S338), CRAF, and Rab11 as shown in FIG. 11A. An ELISA assay was performed to determine the activation of RAS in 3 macrophage donors and the melanoma cells A375 and 1205Lu. As see in FIG. 11B, macrophages have high basal level of RAS activation.

1205Lu [8] = assay: Western blot for cPARP in 1205Lu cells; assay type: cell-based, human; settings: PLX4720 1, 3, 10 μM, 2 days, with or without macrophages
[9] = test system: MAPK pathway (pERK) in melanoma cells; assay: Immunoblotting of MAPK signaling in melanoma cells; assay type: cell-based, human; settings: VEGF 10 ng/ml and PLX4720 1 μM, 4 hours
Protocol: Macrophages and melanoma co-culture system was set up as described above. Melanoma cells were cultured same as Proliferation assay for 6 hours and were harvested for Immmunoblotting with following antibodies: phspho-ERK, total ERK, HSP90, phosphor-AKT, AKT, phosphor-NF-κB, phospho-CRAF, total CRAF, Phospho-ARAF, RAB11, Vinculin.
Cells were harvested for immunoblotting with antibodies to pERK, ERK, HSP90. VEGF increases the activation of MAPK pathway (FIG. 10C).
Relative cell growth and cell death were determined as above.

Compound: CC(C)(C)c1nc(-c2cccc(NS(=O)(=O)c3c(F)cccc3F)c2F)c(-c2ccnc(N)n2)s1 [Dabrafenib]
- macrophage apoptosis / cell death (macrophages): protects macrophage from cell death

Compound: CNC(=O)[C@H](Cc1c[nH]c2ccccc12)NC(=O)[C@@H](CC(=O)NO)CC(C)C [GM6001]
- 1205Lu-MΦ supernatant induced melanoma invasion (1205Lu melanoma cells; GM6001 10 μM, Matrigel Transwell): did not have a significant effect
- melanoma cell invasion (FIG. 7) (1205Lu melanoma cells; MMPi 5 μM, 18 h, 1205Lu-MΦ CM): marginally increased melanoma cell invasion

Compound: COc1ccc(COc2ccc(Cc3cnc(N)nc3N)cc2OC)cc1 [GW2580, 5-(3-methoxy-40((4-methoxybenzyl)oxy)benzyl)pyrimidine-2,4-diamine]
- numbers of peritoneal F4/80 positive macrophages [1]: significant decrease
- expression of pERK, pAKT, pS6, pRSK90 (Western blot) (1205Lu [2]): all blots appear similar to col. 4
- Ki67 positive cells in tumor tissues [3]: fewer
- signaling of phospho-ERK in tumor tissues [3]: decreased signaling
- F4/80 positive macrophages in tumors [3]: abolished
- melanoma growth and death in vitro ([4]; GW2580 alone, 72 hours): did not have significant effects
- efficacy compared with PLX4720 alone (1205Lu xenograft; 14 days, GW2580 160 mg/kg vs PLX4720): less efficacious than PLX4720
- tumor size / tumor growth (1205Lu xenograft; after 14 days of oral treatment, GW2580 160 mg/kg, PLX4720 30 mg/ml as printed): significantly decreased tumor size
- effect on anti-tumor activity of PLX4720 on 1205Lu xenograft tumor growth (FIG. 12A) (1205Lu xenograft; oral, 14 days): increases anti-tumor activity of PLX4720
- macrophage-mediated resistance of melanoma cells to BRAFi (cell growth, anti-cell death effect) [5]: can reverse macrophage-mediated resistance

Compound: COc1cc2nccc(Oc3ccc(NC(=O)NC4CC4)c(Cl)c3)c2cc1C(N)=O [Lenbatinib]
- macrophage-mediated resistance of melanoma cells to BRAFi (cell growth, anti-cell death effect) [5]: reverse macrophage-mediated resistance

Compound: CCCS(=O)(=O)Nc1ccc(F)c(C(=O)c2c[nH]c3ncc(Cl)cc23)c1F [PLX4720]
- numbers of peritoneal F4/80 positive macrophages [1]: amplified this effect
- Ki67 positive cells in tumor tissues [3]: fewer
- signaling of phospho-ERK in tumor tissues [3]: decreased signaling
- F4/80 positive macrophages in tumors [3]: significant decrease
- production of VEGF in macrophages [6]: significantly increased
- MAPK signaling in macrophages [7]: strongly activated
- cPARP gel (Western blot) (1205Lu [8]): showed a second blot
- macrophage apoptosis / cell death (macrophages): protects macrophage from apoptosis
- BRAFi-induced growth inhibition and cell death of melanoma cells when co-cultured with macrophages ([5]; 0-10 μM, 3 days, 1205Lu, A375, SK-MEL-28, 451Lu): significantly protected from PLX4720-induced growth inhibition and cell death

Compound: VEGF
- rescue of PLX4720-induced cell growth inhibition ([4]; VEGF 10 ng/ml with PLX4720, 3 days): rescued PLX4720-induced cell growth inhibition
- MAPK pathway in melanoma cells [9]: activated the MAPK pathway

Compound: m-CSFR: soluble M-CSFR
- expression of pERK, pAKT, pS6, pRSK90 (Western blot) (1205Lu [2]): no change from control
